In patent publication US9994551B2, “Pyridazine derivatives as RORc modulators” (Genentech, Inc., priority 2015, dated 2018):
pIC50: −log10 of the molar value.

molecular target: T1, RORc ligand binding domain (Homo sapiens, UniProt P51449); experiment: In vitro RORc ligand binding assay (25-[3H]hydroxycholesterol displacement, filter binding)
T1 construct: host or cells: E. coli
T1 sequence (P51449 269-508 limits assumed): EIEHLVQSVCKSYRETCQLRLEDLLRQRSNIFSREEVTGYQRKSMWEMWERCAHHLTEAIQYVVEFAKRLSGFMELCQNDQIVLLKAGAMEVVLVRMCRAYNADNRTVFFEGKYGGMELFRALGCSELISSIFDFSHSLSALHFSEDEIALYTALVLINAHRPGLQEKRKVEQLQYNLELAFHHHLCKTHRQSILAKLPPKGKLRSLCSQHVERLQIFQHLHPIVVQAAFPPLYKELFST

SMILES	pIC50
CC1(C)[C@H]2CC[C@]1(O[C@@H](C(N)=O)C1CC1)c1nnc(-c3c(F)cccc3F)cc12 [Compound 44]	7.84
CC[C@@H](O[C@@]12CC[C@@H](c3cc(-c4c(F)cccc4F)nnc31)C2(C)C)C(=O)NNC(C)=O [Compound 58, (R)-N′-acetyl-2-(((5S,8R)-3-(2,6-difluorophenyl)-9,9-dimethyl-5,6,7,8-tetrahydro-5,8-methanocinnolin-8-yl)oxy)butanehydrazide]	6.98
CN1CCN(C(N)=O)[C@@H]([C@@]23CC[C@@H](c4cc(-c5c(F)cccc5F)nnc42)C3(C)C)C1 [Compound 181, 2-[5-(2,6-difluorophenyl)-11,11-dimethyl-3,4-diazatricyclo[6.2.1.02,7]undeca-2,4,6-trien-1-yl]-4-methyl-piperazine-1-carboxamide]	7.21
CC1(C)[C@H]2CC[C@]1([C@H]1CCCN(S(C)(=O)=O)C1)c1nnc(-c3c(F)cccc3F)cc12 [Compound 95, (5R,8R)-3-(2,6-difluorophenyl)-9,9-dimethyl-8-((R)-1-(methylsulfonyl)piperidin-3-yl)-5,6,7,8-tetrahydro-5,8-methanocinnoline]	6.46
CC1(C)[C@H]2CC[C@]1([C@H]1CCCN(c3cccnn3)C1)c1nnc(-c3c(F)cccc3F)cc12 [Compound 169, 5-(2,6-difluorophenyl)-11,11-dimethyl-1-(1-pyridazin-3-yl-3-piperidyl)-3,4-diazatricyclo[6.2.1.02,7]undeca-2,4,6-triene]	7.40
CN1CCO[C@@H]([C@@]23CC[C@@H](c4cc(-c5c(F)cccc5F)nnc42)C3(C)C)C1 [Compound 71, (S)-2-((5R,8R)-3-(2,6-difluorophenyl)-9,9-dimethyl-5,6,7,8-tetrahydro-5,8-thanocinnolin-8-yl)-4-methylmorpholine]	6.43
Cc1n[nH]c(N2CCC[C@H]([C@@]34CC[C@@H](c5cc(-c6c(F)cccc6F)nnc53)C4(C)C)C2)n1 [Compound 173, 5-(2,6-difluorophenyl)-11,11-dimethyl-1-[1-(3-methyl-1H-1,2,4-triazol-5-yl)-3-piperidyl]-3,4-diazatricyclo[6.2.1.02,7]undeca-2,4,6-triene]	8.55
CC1(C)[C@H]2CC[C@]1([C@H]1CN(C(=O)c3c[nH]c(=O)cn3)CCO1)c1nnc(-c3c(F)cccc3F)cc12 [Compound 119, 5-[2-[5-(2,6-difluorophenyl)-11,11-dimethyl-3,4-diazatricyclo[6.2.1.02,7]undeca-2,4,6-trien-1-yl]morpholine-4-carbonyl]-1H-pyrazin-2-one]	7.68
CC1(C)[C@H]2CC[C@]1(OCc1ncccn1)c1nnc(-c3c(F)cccc3F)cc12 [Compound 13, (5S,8R)-3-(2,6-difluorophenyl)-9,9-dimethyl-8-(pyrimidin-2-ylmethoxy)-5,6,7,8-tetrahydro-5,8-methanocinnoline]	6.29
CC1(C)[C@H]2CC[C@]1([C@@H]1CN(c3ncn[nH]3)CCO1)c1nnc(-c3c(F)cccc3F)cc12 [Compound 155, 2-[5-(2,6-difluorophenyl)-11,11-dimethyl-3,4-diazatricyclo[6.2.1.02,7]undeca-2,4,6-trien-1-yl]-4-(1H-1,2,4-triazol-5-yl)morpholine]	7.22
CC1(C)[C@H]2CC[C@]1([C@H]1CCCN(C(=O)NC3(CO)COC3)C1)c1nnc(-c3c(F)cccc3F)cc12 [Compound 171]	8.19
CC1(C)[C@H]2CC[C@]1(Oc1ccc(=O)[nH]c1)c1nnc(-c3c(F)cccc3F)cc12 [Compound 33, 5-(((5S,8R)-3-(2,6-difluorophenyl)-9,9-dimethyl-5,6,7,8-tetrahydro-5,8-methanocinnolin-8-yl)oxy)pyridin-2(1H)-one]	6.92
CC(=O)N1CCO[C@H]([C@@]23CC[C@@H](c4cc(-c5c(F)cccc5F)nnc42)C3(C)C)C1 [Compound 64, 1-((R)-2-((5R,8R)-3-(2,6-difluorophenyl)-9,9-dimethyl-5,6,7,8-tetrahydro-5,8-methanocinnolin-8-yl)morpholino)ethanone]	6.51
CC1(C)[C@H]2CC[C@]1([C@H]1CNCCO1)c1nnc(-c3c(F)cccc3F)cc12 [Compound 70, (S)-2-((5R,8R)-3-(2,6-difluorophenyl)-9,9-dimethyl-5,6,7,8-tetrahydro-5,8-methanocinnolin-8-yl)morpholine]	6.44
CC[C@@H](O[C@@]12CC[C@@H](c3cc(-c4c(F)cccc4F)nnc31)C2(C)C)C(=O)O [Compound 111, (2R)-2-[[(1R,8S)-5-(2,6-difluorophenyl)-11,11-dimethyl-3,4-diazatricyclo[6.2.1.02,7]undeca-2,4,6-trien-1-yl]oxy]butanoic acid]	7.85
CCC[C@H](O[C@@]12CC[C@@H](c3cc(-c4c(F)cccc4F)nnc31)C2(C)C)C(N)=O [Compound 50, (S)-2-(((5S,8R)-3-(2,6-difluorophenyl)-9,9-dimethyl-5,6,7,8-tetrahydro-5,8-methanocinnolin-8-yl)oxy)pentanamide]	6.70
CC(=O)N1CCN(C)C[C@@H]1[C@@]12CC[C@@H](c3cc(-c4c(F)cccc4F)nnc31)C2(C)C [Compound 182, 1-[2-[5-(2,6-difluorophenyl)-11,11-dimethyl-3,4-diazatricyclo[6.2.1.02,7]undeca-2,4,6-trien-1-yl]-4-methyl-piperazin-1-yl]ethanone]	8.04
CNC(=O)N1CCO[C@H]([C@@]23CC[C@@H](c4cc(-c5c(F)cccc5F)nnc42)C3(C)C)C1 [Compound 69, (R)-2-((5R,8R)-3-(2,6-difluorophenyl)-9,9-dimethyl-5,6,7,8-tetrahydro-5,8-methanocinnolin-8-yl)-N-methylmorpholine-4-carboxamide]	7.42
C[C@H](O)CNC(=O)N1CCC[C@H]([C@@]23CC[C@@H](c4cc(-c5c(F)cccc5F)nnc42)C3(C)C)C1 [Compound 151, 3-[5-(2,6-difluorophenyl)-11,11-dimethyl-3,4-diazatricyclo[6.2.1.02,7]undeca-2,4,6-trien-1-yl]-N-(2-hydroxypropyl)piperidine-1-carboxamide]	8.11
CC[C@@H](O[C@@]12CC[C@@H](c3cc(-c4c(F)cccc4F)nnc31)C2(C)C)C(=O)NC[C@H](C)O [Compound 51, (R)-2-(((5S,8R)-3-(2,6-difluorophenyl)-9,9-dimethyl-5,6,7,8-tetrahydro-5,8-methanocinnolin-8-yl)oxy)-N-((S)-2-hydroxypropyl)butanamide]	7.21
CC[C@@H](O[C@@]12CC[C@@H](c3cc(-c4c(F)cccc4F)nnc31)C2(C)C)C(=O)NCc1n[nH]c(=O)[nH]1 [Compound 56, (R)-2-(((5S,8R)-3-(2,6-difluorophenyl)-9,9-dimethyl-5,6,7,8-tetrahydro-5,8-methanocinnolin-8-yl)oxy)-N-((5-oxo-4,5-dihydro-1H-1,2,4-triazol-3-yl)methyl)butanamide]	7.02
Cc1noc(N2CCO[C@H]([C@@]34CC[C@@H](c5cc(-c6c(F)cccc6F)nnc53)C4(C)C)C2)n1 [Compound 84, (R)-2-((5R,8R)-3-(2,6-difluorophenyl)-9,9-dimethyl-5,6,7,8-tetrahydro-5,8-methanocinnolin-8-yl)-4-(3-methyl-1,2,4-oxadiazol-5-yl)morpholine]	6.56
CC1(C)[C@H]2CC[C@]1([C@@H]1CN(C(=O)c3ccc(=O)[nH]n3)CCO1)c1nnc(-c3c(F)cccc3F)cc12 [Compound 89, 6-((R)-2-((5R,8R)-3-(2,6-difluorophenyl)-9,9-dimethyl-5,6,7,8-tetrahydro-5,8-methanocinnolin-8-yl)morpholine-4-carbonyl)pyridazin-3(2H)-one]	6.63
CC(=O)N1CCN(C)[C@H]([C@@]23CC[C@@H](c4cc(-c5c(F)cccc5F)nnc42)C3(C)C)C1 [Compound 177, 1-[3-[5-(2,6-difluorophenyl)-11,11-dimethyl-3,4-diazatricyclo[6.2.1.02,7]undeca-2,4,6-trien-1-yl]-4-methyl-piperazin-1-yl]ethanone]	7.82
CC1(C)[C@H]2CC[C@]1([C@H]1CCCN(C(=O)NC3CC(O)C3)C1)c1nnc(-c3c(F)cccc3F)cc12 (stereo in doubt) [Compound 148, 3-[5-(2,6-difluorophenyl)-11,11-dimethyl-3,4-diazatricyclo[6.2.1.02,7]undeca-2,4,6-trien-1-yl]-N-(3-hydroxycyclobutyl)piperidine-1-carboxamide]	6.43
CCC[C@@H](O[C@@]12CC[C@@H](c3cc(-c4c(F)cccc4F)nnc31)C2(C)C)C(N)=O [Compound 49, (R)-2-(((5S,8R)-3-(2,6-difluorophenyl)-9,9-dimethyl-5,6,7,8-tetrahydro-5,8-methanocinnolin-8-yl)oxy)pentanamide]	7.81
CC1(C)[C@H]2CC[C@]1([C@H]1CCCN(C(=O)NCC3(O)COC3)C1)c1nnc(-c3c(F)cccc3F)cc12 (stereo in doubt) [Compound 153, 3-[5-(2,6-difluorophenyl)-11,11-dimethyl-3,4-diazatricyclo[6.2.1.02,7]undeca-2,4,6-trien-1-yl]-N-[(3-hydroxyoxetan-3-yl)methyl]piperidine-1-carboxamide]	6.96
CC1(C)[C@H]2CC[C@]1([C@H]1CN(C(N)=O)CCO1)c1nnc(-c3c(F)cccc3F)cc12 [Compound 81, (S)-2-((5R,8R)-3-(2,6-difluorophenyl)-9,9-dimethyl-5,6,7,8-tetrahydro-5,8-methanocinnolin-8-yl)morpholine-4-carboxamide]	7.18
CC[C@@H](O[C@@]12CC[C@@H](c3cc(-c4c(F)cccc4F)nnc31)C2(C)C)C(=O)NCc1nnc(C)o1 [Compound 59, (R)-2-(((5S,8R)-3-(2,6-difluorophenyl)-9,9-dimethyl-5,6,7,8-tetrahydro-5,8-methanocinnolin-8-yl)oxy)-N-((5-methyl-1,3,4-oxadiazol-2-yl)methyl)butanamide]	7.34
